In data set [1] the test system is human embryonic kidney 293t cell lines. In words: Toxicity on human embryonic kidney 293T cells. The note with it: human. The procedure: The following representative compounds are tested for their RORγt inhibitory activity and toxicity.
Data set [2] concerns the target T1, RORγt binding to Il17a/f and Il23r loci (Mus musculus, UniProt P51450).
T1 construct: endogenous in cells; host or cells: mouse Th17-polarized CD4+ T cells
In words: Chromatin immunoprecipitation of RORγt at target loci in Th17-polarized cells. Format: cell-based. The note with it: 10 and 20 μM, ChIP.

Data set [3] has as its system RORγ LBD mutants (L290, C318, A494). In words: Random mutagenesis of RORγ LBD, digoxin resistance in S2 reporter. The note with it: mutations at L290, C318 and A494. Format: cell-based, mouse.
The subject of data set [4] is gut (large intestine) Th17 cells. In words: DSS-induced model relating to intestinal bowel diseases. The conditions noted are these: IP daily, day 7. Also on record: dose or concentration left out as unconfirmed. Format: in vivo, mouse. The protocol:
Th17 cells were induced by Dextran Sulfate Sodium (DSS) treatment, a chemical agent that causes intestinal epithelial injury, and thus, is often used to generate an animal model that mimics many aspects of intestinal bowel diseases. […] Gut associated mononuclear cells were collected and their cytokine expression was analyzed on day 7. Representative FACS plots (gated on CD4^+CD3^+TCRβ^+CD19^− cells) from each group are shown (left).
B6 wild-type mice received 2% DSS (Dextran Sulfate Sodium) ad libitum in drinking water for 7 days. […] Gut associated cells were collected and activated for cytokine straining on day 7. To isolate cells from the small intestinal lamina propria, Peyer's patches, fat and mesenterium were removed before opening the intestine longitudinally. The tissue was cut into 2 cm pieces and washed in calcium- and magnesium-free PBS (Gibco). The tissue was then washed for 10 minutes in cold 1 mM DTT (Sigma) in PBS then two 10 minute washes in 30 mM EDTA, 10 mM HEPES (Gibco) in PBS at 37° C. The tissue was washed with complete RPMI and digested for 1.5 hr at 37° C. in 5% CO2, humidified atmosphere, in complete RPMI containing 100 U ml-1 type VIII collagenase (Sigma) and 150 μg ml—1 DNaseI (Sigma). After digestion, cells were eluted from the tissue by shaking. Live cells were isolated using a Percoll (Pharmacia) gradient. […]

Another data set deals with T2, DHR3 (Drosophila melanogaster, UniProt P31396).
T2 construct: Drosophila DHR3 (amino acids 120 to end); expressed in transfected cells
In words: S2 cell DHR3 luciferase reporter. The format is cell-based. The note with it: 10 μM, FIG. 1c. The source says: The Drosophila S2 cell line was originally purchased from Invitrogen and was maintained in Schneider's medium supplemented with 10% heat-inactivated bovine fetal calf serum and antibiotics (Invitrogen). Gal4 DNA binding domain (G4 DBD) corresponding to amino acids 1 through 147 of Gal4 protein was PCR amplified to make a fusion construct with mouse RORγt (amino acids 79 to the carboxyl terminal end) lacking its DNA binding domain. The resulting chimeric gene was subcloned into the copper inducible pMT/V5-His A vector (Invitrogen). In a similar manner, Gal4 fusion constructs were prepared with mouse RORα (amino acids 142 to end) or Drosophila DHR3 (amino acids 120 to end). Coding sequences for firefly luciferase (Promega) were PCR amplified and subcloned into pUAST vector containing Gal4 binding enhancer sequences. Renilla luciferase construct under the polIII promoter was obtained from Dr. Dasgupta's laboratory (NYU medical center). In order to generate stable cell lines, cells were co-transfected with pMT-G4 DBD-RORγt, pMT-G4 DBD-RORα, pMT-G4 DBD-DHR3, or pMT-G4 DBDVP16 and pHygro plasmids (Invitrogen) and screened for resistant colonies in the presence of hygromycin (0.3 mg/mL). […]
(In general: Reporter assays use an easily measured gene product as a stand-in for the process of interest.)

Each structure is given as a SMILES string.

T2 sequence (P31396 120-487 limits assumed): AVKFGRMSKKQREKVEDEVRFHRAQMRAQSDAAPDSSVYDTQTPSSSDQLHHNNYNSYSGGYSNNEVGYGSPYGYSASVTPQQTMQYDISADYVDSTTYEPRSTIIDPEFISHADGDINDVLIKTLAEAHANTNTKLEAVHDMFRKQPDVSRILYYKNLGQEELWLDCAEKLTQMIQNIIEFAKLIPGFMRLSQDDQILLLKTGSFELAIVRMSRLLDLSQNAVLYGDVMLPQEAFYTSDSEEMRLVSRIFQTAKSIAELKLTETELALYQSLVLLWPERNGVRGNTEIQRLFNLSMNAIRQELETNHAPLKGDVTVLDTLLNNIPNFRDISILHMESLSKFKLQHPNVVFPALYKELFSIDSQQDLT
T1 sequence (P51450 1-495 isoform P51450-2): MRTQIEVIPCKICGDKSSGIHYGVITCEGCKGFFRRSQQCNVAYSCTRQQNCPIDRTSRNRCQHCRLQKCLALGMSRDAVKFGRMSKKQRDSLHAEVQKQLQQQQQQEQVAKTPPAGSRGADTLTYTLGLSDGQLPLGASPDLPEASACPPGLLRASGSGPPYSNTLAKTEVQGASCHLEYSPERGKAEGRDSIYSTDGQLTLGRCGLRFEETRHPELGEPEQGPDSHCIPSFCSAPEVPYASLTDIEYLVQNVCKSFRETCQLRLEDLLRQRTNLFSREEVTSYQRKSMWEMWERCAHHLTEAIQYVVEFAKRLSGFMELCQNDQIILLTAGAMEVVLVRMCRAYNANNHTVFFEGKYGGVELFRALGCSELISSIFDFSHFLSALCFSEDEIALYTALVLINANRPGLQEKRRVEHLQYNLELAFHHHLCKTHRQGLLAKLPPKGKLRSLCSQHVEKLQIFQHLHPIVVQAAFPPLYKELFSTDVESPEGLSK

With `CC1O[C@@H](OC2C(C)O[C@H](OC3C(C)O[C@@H](O[C@H]4CC[C@@]5(C)[C@H](CC[C@@H]6[C@@H]5C[C@@H](O)[C@]5(C)[C@@H](C(CO)CCO)CC[C@]65O)C4)C[C@H]3O)C[C@H]2O)C[C@@H](O)C1O` (some centres unmarked) [Compound 13, 20,22-Dihydrodigoxin-21,23-diol], the “cytotoxic concentration on human cells” value in data set [1] was > 40 µM.
With `C[C@H]1O[C@@H](O[C@H]2[C@@H](O)C[C@H](O[C@H]3[C@@H](O)C[C@H](O[C@H]4CC[C@@]5(C)[C@H](CC[C@@H]6[C@@H]5C[C@@H](O)[C@]5(C)[C@@H](C7=CC(=O)OC7)CC[C@]65O)C4)O[C@@H]3C)O[C@@H]2C)C[C@H](O)[C@@H]1O` [Digoxin], the “RORγt binding to sites in Il17a/f and Il23r” value in data set [2] is reported as “substantially reduced”. Also, in data set [3], the “sensitivity of mutant RORγ to inhibition” value was “much less sensitivity”. Moreover, the “number of gut (large intestine) Th17 cells” value in data set [4] is given as “reduction”. Also, the “effect on transcriptional activity of DHR3” value at DHR3 is listed as “no effect”.

For the origin of these results see patent publication US9505798B2, “Steroid compounds as RORyt modulators and uses thereof” (New York University, priority 2010, dated 2016).
